Experiments:
Type in all cases: biochemical
[1] = test system: β-D-glucosidase (yeast); assay: Glycosidase assay, β-D-glucosidase (yeast); settings: Table 16; % inhibition; concentration not given
Procedure: (§1) The assays used p-nitrophenyl-substrates and commercial enzymes purchased from Sigma-Aldrich. Enzymes were assayed at 27° C. in 0.1M citric acid/0.2M disodium hydrogen phosphate buffers at the optimum pH for the enzyme. The incubation mixture consisted of 10 μl enzyme solution, 10 μl of 10 mg/ml aqueous solution of extract and 50 μl of the appropriate 5 mM p-nitrophenyl substrate made up in buffer at the optimum pH for the enzyme. The reactions were stopped by addition of 70 μl 0.4M glycine (pH 10.4) during the exponential phase of the reaction, which had been determined at the beginning using uninhibited assays in which water replaced mulberry fractions. Final absorbances were read at 405 nm using a Versamax microplate reader (Molecular Devices). Assays were carried out in triplicate, and the values given are means of the three replicates per assay. Results are expressed as % inhibition.

[2] = target: T1, α-D-glucosidase (rice) (Oryza sativa subsp. japonica, UniProt Q653V7); assay: Glycosidase assay, α-D-glucosidase (rice); settings: Table 16; % inhibition; concentration not given
T1 construct: purchased Sigma-Aldrich
Procedure: as §1
(§2) Substrates are 10 mM p-nitrophenyl-glycopyranosides. Enzymes are purchased from Sigma and run at the pH optima

[3] = target: T2, α-L-fucosidase (bovine) (Bos taurus, UniProt Q2KIM0); assay: Glycosidase assay, α-L-fucosidase (bovine); settings: Table 16; % inhibition; concentration not given
T2 construct: purchased Sigma-Aldrich
T2 sequence (Q2KIM0 23-468): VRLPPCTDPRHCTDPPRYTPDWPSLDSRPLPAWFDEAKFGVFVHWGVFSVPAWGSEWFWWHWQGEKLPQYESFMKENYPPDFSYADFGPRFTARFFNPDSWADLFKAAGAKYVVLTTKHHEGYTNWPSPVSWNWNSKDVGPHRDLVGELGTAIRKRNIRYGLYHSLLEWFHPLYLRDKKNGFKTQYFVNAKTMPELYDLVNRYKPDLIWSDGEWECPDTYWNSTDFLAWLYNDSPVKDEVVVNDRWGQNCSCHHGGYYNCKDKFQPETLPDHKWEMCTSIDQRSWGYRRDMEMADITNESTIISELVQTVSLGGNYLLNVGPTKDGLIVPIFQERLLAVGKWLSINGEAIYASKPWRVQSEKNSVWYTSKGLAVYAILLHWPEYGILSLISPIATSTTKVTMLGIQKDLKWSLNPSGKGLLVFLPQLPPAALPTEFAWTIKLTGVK
Procedure: as §1

[4] = target: T3, β-D-galactosidase (bovine) (Bos taurus, UniProt Q58D55); assay: Glycosidase assay, β-D-galactosidase (bovine); settings: Table 16; % inhibition; concentration not given
T3 construct: purchased Sigma-Aldrich
T3 sequence (Q58D55 28-653): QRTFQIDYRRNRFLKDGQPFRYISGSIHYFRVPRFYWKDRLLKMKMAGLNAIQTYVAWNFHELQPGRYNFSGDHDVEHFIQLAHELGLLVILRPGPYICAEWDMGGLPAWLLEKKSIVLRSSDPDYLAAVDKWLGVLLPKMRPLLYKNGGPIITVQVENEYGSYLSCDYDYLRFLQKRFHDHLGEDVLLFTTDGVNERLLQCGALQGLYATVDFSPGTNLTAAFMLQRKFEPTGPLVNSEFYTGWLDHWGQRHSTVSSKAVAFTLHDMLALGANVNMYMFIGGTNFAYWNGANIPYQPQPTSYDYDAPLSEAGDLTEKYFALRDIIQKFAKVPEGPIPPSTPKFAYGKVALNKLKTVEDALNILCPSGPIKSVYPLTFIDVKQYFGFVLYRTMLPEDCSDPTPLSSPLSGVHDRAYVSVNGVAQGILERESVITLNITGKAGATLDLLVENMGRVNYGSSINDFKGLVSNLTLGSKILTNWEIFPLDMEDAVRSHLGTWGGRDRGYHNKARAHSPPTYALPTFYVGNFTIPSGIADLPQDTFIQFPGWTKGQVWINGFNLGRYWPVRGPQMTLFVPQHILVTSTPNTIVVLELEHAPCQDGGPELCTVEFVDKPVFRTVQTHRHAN
Procedure: as §1, §2

[5] = test system: N-acetyl-β-D-gluc (Bovine kidney); assay: Glycosidase assay, N-acetyl-β-D-gluc (Bovine kidney); settings: Table 16; % inhibition; concentration not given
Procedure: as §1, §2

[6] = test system: β-D-mannosidase Cellulomonas fimi; assay: Glycosidase assay, β-D-mannosidase (Cellulomonas fimi); settings: Table 16; % inhibition; concentration not given
Procedure: as §1

[7] = target: T4, β-glucuronidase (bovine liver) (Bos taurus, UniProt A3KMY8); assay: Glycosidase assay, β-glucuronidase (bovine liver); settings: read-out: IC50 against bovine liver β-glucuronidase
T4 construct: purchased Sigma-Aldrich; host or cells: bovine liver
T4 sequence (A3KMY8 1-652): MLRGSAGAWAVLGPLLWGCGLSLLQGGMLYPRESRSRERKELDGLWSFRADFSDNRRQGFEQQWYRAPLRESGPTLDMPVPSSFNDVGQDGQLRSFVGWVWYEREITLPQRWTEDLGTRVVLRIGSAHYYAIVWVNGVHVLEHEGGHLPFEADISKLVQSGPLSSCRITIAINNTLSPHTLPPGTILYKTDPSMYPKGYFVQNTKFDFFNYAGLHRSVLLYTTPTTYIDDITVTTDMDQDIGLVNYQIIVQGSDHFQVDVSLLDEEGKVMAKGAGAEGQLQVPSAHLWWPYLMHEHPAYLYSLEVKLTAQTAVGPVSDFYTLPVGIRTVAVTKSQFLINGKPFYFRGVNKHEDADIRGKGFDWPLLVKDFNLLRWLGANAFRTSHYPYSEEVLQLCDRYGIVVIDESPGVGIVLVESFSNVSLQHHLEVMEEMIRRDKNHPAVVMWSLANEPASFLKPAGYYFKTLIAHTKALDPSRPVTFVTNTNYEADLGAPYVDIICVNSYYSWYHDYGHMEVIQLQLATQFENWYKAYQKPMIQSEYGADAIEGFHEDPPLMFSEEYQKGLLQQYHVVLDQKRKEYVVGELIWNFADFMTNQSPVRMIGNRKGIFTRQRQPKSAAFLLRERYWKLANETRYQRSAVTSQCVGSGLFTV
Procedure: as §1, §2

T1 sequence (Q653V7 34-885): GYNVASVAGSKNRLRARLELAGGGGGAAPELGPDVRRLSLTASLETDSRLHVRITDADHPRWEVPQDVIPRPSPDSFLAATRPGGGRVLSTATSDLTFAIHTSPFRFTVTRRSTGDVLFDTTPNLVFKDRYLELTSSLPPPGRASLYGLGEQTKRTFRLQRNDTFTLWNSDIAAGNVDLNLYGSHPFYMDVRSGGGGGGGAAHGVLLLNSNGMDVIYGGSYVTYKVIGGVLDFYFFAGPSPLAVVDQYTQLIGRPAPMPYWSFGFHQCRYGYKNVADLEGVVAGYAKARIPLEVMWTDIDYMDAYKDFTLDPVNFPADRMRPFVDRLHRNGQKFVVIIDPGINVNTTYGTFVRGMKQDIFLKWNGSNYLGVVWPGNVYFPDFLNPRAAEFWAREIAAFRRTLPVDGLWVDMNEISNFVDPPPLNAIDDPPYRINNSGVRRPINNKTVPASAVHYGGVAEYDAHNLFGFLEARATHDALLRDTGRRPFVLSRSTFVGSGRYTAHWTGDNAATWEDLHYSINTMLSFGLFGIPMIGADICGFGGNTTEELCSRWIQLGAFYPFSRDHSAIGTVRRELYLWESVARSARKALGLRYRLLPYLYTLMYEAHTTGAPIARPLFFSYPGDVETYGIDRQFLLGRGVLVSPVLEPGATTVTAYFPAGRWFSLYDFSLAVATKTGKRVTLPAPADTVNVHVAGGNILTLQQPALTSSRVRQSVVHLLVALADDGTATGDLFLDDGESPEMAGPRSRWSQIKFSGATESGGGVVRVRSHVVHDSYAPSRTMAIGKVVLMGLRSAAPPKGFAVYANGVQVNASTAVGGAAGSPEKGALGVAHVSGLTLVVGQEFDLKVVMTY

| SMILES | β-D-glucosidase (yeast) [1] | α-D-glucosidase (Rice) [2] | α-L-fucosidase (Bovine) [3] | β-D-galactosidase (Bovine) [4] | N-acetyl-β-D-gluc (Bovine kidney) [5] | β-D-mannosidase (C. fimi) [6] | IC50 [7] |
| --- | --- | --- | --- | --- | --- | --- | --- |
| OC[C@H]1NC[C@H](O)[C@@H](O)[C@@H]1O [DNJ, 1 deoxynojirmycin] | 64% | 100% | 6% | 0% | 0% | −19% |  |
| O=C(O)CN1C[C@@H](O)[C@H](O)[C@H]1CO [DAB-N-ethanoic, DAB-N-ethanoic acid] | 7% | 42% | 3% | 0% | 82% | −5% | 523 µM |
| O=C(O)CCN1C[C@H](O)[C@@H](O)[C@H](O)[C@H]1CO [DNJ-N-propanoic, DNJ-N-propanoic acid] | 32% | 100% | 11% | 12% | 86% | −5% | 340 µM |
| O=C(O)CN1C[C@H](O)[C@@H](O)[C@H](O)[C@H]1CO [DNJ-N-ethanoic, DNJ-ethanoic acid] | 14% | 100% | 5% | 2% | 84% | −10% | 208 µM |

From US11484561B2, “Morus extracts rich in N-acids of imino sugars and or pipecolic acids” (Phynova Limited, priority 2011, dated 2022)
